In patent US11434205B2, “Substituted imidazole carboxylate derivatives and the use thereof” (priority 2018, dated 2022):
Where two headings read alike, the source gives them in different places.

Key:
[1] = tested on: rats; assay: Loss of righting reflexes (LORR) assay in rats, ED50 by up and down method; format: in vivo, rat; conditions: Rattus norvegicus, tail vein
How it was run: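 ED50 obtained by up-and-down dosing, with righting-reflex loss over 30 s counted as general anesthesia. Compounds injected into the tail vein (0.1 mL/s) of male Sprague-Dawley rats weighing 250-300 g.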

[2] = tested on: rats
Experimental: Adult male Sprague-Dawley rats (250-300 g) were selected for the experiment. […] The anesthesia effects of the compounds were assessed in rats using a LORR assay and a period >30 s was considered as an indicator of general anesthesia. Then the up and down method was used to determine 50% effective dose (ED50). The drugs were administered through the tail vein of rats in a volume of 0.6 mL and at a rate of 0.1 mL/s.

[3] = tested on: rats; assay: Pharmacological characteristics at equivalent doses (2×ED50) in rats; conditions: 2×ED50, tail vein; for Adverse reactions: Red urine (incidence): DMSO solution (DMSO alone 10/10); for Adverse reactions: Tremor (incidence): animals affected/animals; for Onset time: time of LORR
How it was run: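 Anesthesia onset, recorded as time of LORR, was measured after a 2×ED50 tail-vein injection (0.6 mL, 0.1 mL/s). Animals were male Sprague-Dawley rats of 250-300 g, n=8.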

[4] = tested on: secretion of corticosterone, H295R cell line; assay: cells; format: cell-based; conditions: for EC50: read-out: EC50 (Corticosterone)
Experimental: (§1) The Effects of the Compounds on Adrenocortical Function In Vitro Test
(§2) Then secretion of the cortisol and corticosterone in the supernatant, was measured using HPLC-MS/MS method to determine whether the compounds of the present invention had adrenotoxic potential.

[5] = tested on: secretion of cortisol, H295R cell line; assay: cells; format: cell-based; conditions: for EC50: read-out: EC50 (Cortisol)
Experimental: as §1, §2

[6] = tested on: rats; format: in vivo, rat; conditions: for recovery time of the test animals' righting reflex: rats of the MAP/HR figures, 2×ED50, tail vein, same value in min
How it was run: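 Hemodynamic stability judged from mean arterial pressure and heart rate, recorded at 15 s intervals over 30 min pre- and post-dose. Dosing was through a tail-vein indwelling catheter in rats carrying implanted aortic/ventricular catheters and ECG wires, operated ≥1 week earlier.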

[7] = tested on: rats; remark: listed apart in the source
Experimental: Pharmacological Effects of the Compounds on Continuous Infusion in Rats
Adult male Sprague-Dawley rats with body weight ranging from 250 to 300 gm were selected for continuous infusion test. […] Time to recovery of righting reflex from stopping infusion, and time to fully awake from stopping infusion were recorded.

[8] = tested on: rats; format: in vivo, rat; conditions: rats of the MAP/HR figures, 2×ED50, tail vein
[9] = H295R cell line, 0.1-10000 nM, HPLC-MS/MS, Table E3
[10] = continuous tail vein infusion at 2×MIR, LORR maintained 1 hour, Table E4
[11] = H295R cell line, 0.1-10000 nM, HPLC-MS/MS, Table D3
[12] = continuous tail vein infusion at 2×MIR, LORR maintained 1 hour, Table D4
[13] = emulsion, continuous infusion at 2×MIR
[14] = continuous tail vein infusion at 2×MIR, LORR maintained 1 hour, Table C4

Structure (SMILES)	ED50 ([1]; class symbols)	Approximate therapeutic index [2]	Minimal lethal dose [2]	Righting reflex duration [3]	Adverse reactions: Red urine (incidence) [3]	Adverse reactions: Tremor (incidence) [3]	Onset time [3]	Corticosterone as an indicator to determine the presence of inhibition [4, 9]	EC50 ([4]; Homo sapiens, NCI-H295R)	Cortisol as an indicator to determine the presence of inhibition [5, 9]	EC50 ([5]; Homo sapiens, NCI-H295R)	recovery time of the test animals' righting reflex [6]	Onset time [7, 10]	Recovery time after stopping infusion [7, 10]	recovery time of the test animals' righting reflex [8]	Corticosterone as an indicator to determine the presence of inhibition [4, 11]	Cortisol as an indicator to determine the presence of inhibition [5, 11]	Onset time [7, 12]	Recovery time after stopping infusion [7, 12]	Corticosterone as an indicator to determine the presence of inhibition ([4]; H295R, Table C3)	other results
CC#CCOC(=O)c1c(F)ncn1[C@H](C)c1ccccc1 [Compound E35]	0.1 to 0.5 mg/kg	>17	>4 mg/kg	2.30 ± 0.80 min	urine (8/8)	(4/8), Red	0.32 ± 0.11 min	0	> 10 µM	0	> 10 µM	2.52 min	2 to 3 min	10 to 13 min	151 s						Types and incidence of adverse reactions [7, 10]: Tongue stretching (2/6), Tremor (3/6)
C#CC(C)(C)OC(=O)c1cncn1[C@H](C)c1ccccc1 [Compound D15]	0.1 to 0.5 mg/kg	>10	>4 mg/kg	2.25 ± 0.79 min	(7/8)	Tremor (2/8), Red urine	0.21 ± 0.10 min		> 10 µM		> 10 µM	3.75 min			225 s	0	0	2 to 3 min	10 to 11 min		Types and incidence of adverse reactions [7, 12]: Tremor (3/6)
CC#CC1(OC(=O)c2cncn2[C@H](C)c2ccccc2)CCCCC1 [Compound D40]	0.1 to 0.5 mg/kg	>16	>4 mg/kg	1.78 ± 1.94 min	Red urine (8/8)		0.73 ± 0.43 min		> 1 µM		> 1 µM	7.35 min			441 s	0	0	2 to 3 min	10 to 15 min		Adverse reactions: Hindlimb rigidity (incidence) [3]: Hindlimb rigidity (1/8),; Types and incidence of adverse reactions [7, 12]: Tremor (5/6)
COCC1(COC(=O)c2cncn2[C@H](C)c2ccccc2)CCC1 [Compound A11]	0.01 to 0.1 mg/kg	>12	>1 mg/kg	3.81 ± 1.49 min	Red urine (8/8)		0.21 ± 0.10 min		> 10 µM		> 10 µM	3.75 min			225 s						Corticosterone as an indicator to determine the presence of inhibition ([4]; H295R, Table A3): 0; Cortisol as an indicator to determine the presence of inhibition ([5]; H295R, Table A3): 0; Recovery time after stopping infusion ([7]; after 1 hour infusion at 2×MIR): 14 to 18 min; Adverse reactions: Tremor (incidence) ([7]; continuous infusion 2×MIR): Tremor (5/6); Onset time [7, 13]: 3 to 4 min
CCCC(CCC)OC(=O)c1cncn1[C@H](C)c1ccccc1 [Compound C20]	0.1 to 0.5 mg/kg	>16	>7 mg/kg	3.59 ± 2.63 min	(8/8)	Tremor (2/8), Red urine	0.43 ± 0.07 min		> 10 µM		> 10 µM	4.05 min			243 s					0	Cortisol as an indicator to determine the presence of inhibition ([5]; H295R, Table C3): 0; Onset time [7, 14]: 3 to 4 min; Recovery time after stopping infusion [7, 14]: 8 to 15 min; Types and incidence of adverse reactions [7, 14]: Tremor (3/6), Myoclonus (1/6)
CC(=O)C(C)(C)OC(=O)c1c(F)ncn1[C@H](C)c1ccccc1 [Compound E6]	0.5 to 1 mg/kg	>24	>10 mg/kg	2.73 ± 1.08 min	urine (8/8)	(1/8), Red	0.13 ± 0.04 min	0	> 10 µM	0	> 10 µM	2.90 min	2 to 3 min	9 to 11 min	174 s						Types and incidence of adverse reactions [7, 10]: Tremor (4/6)
CSCOC(=O)c1cncn1[C@H](C)c1ccccc1 [Compound C26]	0.5 to 1 mg/kg	>11	>6 mg/kg	2.11 ± 1.02 min	Red urine (8/8)		0.30 ± 0.09 min		> 10 µM		> 10 µM	2.28 min			137 s					0	Adverse reactions: Muscle twitching (incidence) [3]: Muscle twitching (1/8),; Cortisol as an indicator to determine the presence of inhibition ([5]; H295R, Table C3): 0; Onset time [7, 14]: 2 to 3 min; Recovery time after stopping infusion [7, 14]: 9 to 13 min; Types and incidence of adverse reactions [7, 14]: Tremor (2/6)
CCOC(=O)c1cncn1[C@H](C)c1ccccc1 [Etomidate, ethyl R-(+)-1-(1-phenylethyl)-1H-imidazol-5-carboxylate, reference compound]			12.75 mg/kg					2	> 0.01 µM	2	> 0.001 µM	7.33 min	4 to 5 min	25 to 30 min	440 s	2	2	4 to 5 min	25 to 30 min	2	ED50 ([1]; brackets = 95% confidence limit): 0.75 mg/kg; Corticosterone as an indicator to determine the presence of inhibition ([4]; H295R, Table A3): 2; Corticosterone as an indicator to determine the presence of inhibition ([4]; H295R, Table B3): 2; EC50 [4, 11]: > 0.01 µM; EC50 [4, 9]: > 0.01 µM; Cortisol as an indicator to determine the presence of inhibition ([5]; H295R, Table A3): 2; Cortisol as an indicator to determine the presence of inhibition ([5]; H295R, Table B3): 2; Cortisol as an indicator to determine the presence of inhibition ([5]; H295R, Table C3): 2; EC50 [5, 11]: > 0.001 µM; EC50 [5, 9]: > 0.001 µM; effect on the circulatory function (MAP, HR) ([6]; rats, 2×ED50, 30 min after administration): almost no inhibitory effect on the circulatory function; Recovery time after stopping infusion ([7]; after 1 hour infusion at 2×MIR): 25 to 30 min; Adverse reactions: Facial muscle twitching (incidence) ([7]; continuous infusion 2×MIR): twitching (4/6), Tongue stretching; Adverse reactions: Tongue stretching (incidence) ([7]; continuous infusion 2×MIR): (5/6); Adverse reactions: Tremor (incidence) ([7]; continuous infusion 2×MIR): 6/6; Onset time [7, 14]: 4 to 5 min; Recovery time after stopping infusion [7, 14]: 25 to 30 min; Onset time [7, 13]: 4 to 5 min
